This passage reports Ki and Kd results from patent US6518301B1, “Estrogen receptor-β ligands” (AstraZeneca AB, priority 1999, dated 2003).

Read-outs that look alike come from different tables or passages of the source.

Assay [1] addresses T1, ER-α (Gen Bank Accession #M12674) (Homo sapiens, UniProt P03372).
T1 construct: made in house; host or cells: in vitro transcription/translation, TNT T7 Quick-Coupled reticulocyte lysate (Promega Cat.#L1170)
T1 sequence (P03372 1-595): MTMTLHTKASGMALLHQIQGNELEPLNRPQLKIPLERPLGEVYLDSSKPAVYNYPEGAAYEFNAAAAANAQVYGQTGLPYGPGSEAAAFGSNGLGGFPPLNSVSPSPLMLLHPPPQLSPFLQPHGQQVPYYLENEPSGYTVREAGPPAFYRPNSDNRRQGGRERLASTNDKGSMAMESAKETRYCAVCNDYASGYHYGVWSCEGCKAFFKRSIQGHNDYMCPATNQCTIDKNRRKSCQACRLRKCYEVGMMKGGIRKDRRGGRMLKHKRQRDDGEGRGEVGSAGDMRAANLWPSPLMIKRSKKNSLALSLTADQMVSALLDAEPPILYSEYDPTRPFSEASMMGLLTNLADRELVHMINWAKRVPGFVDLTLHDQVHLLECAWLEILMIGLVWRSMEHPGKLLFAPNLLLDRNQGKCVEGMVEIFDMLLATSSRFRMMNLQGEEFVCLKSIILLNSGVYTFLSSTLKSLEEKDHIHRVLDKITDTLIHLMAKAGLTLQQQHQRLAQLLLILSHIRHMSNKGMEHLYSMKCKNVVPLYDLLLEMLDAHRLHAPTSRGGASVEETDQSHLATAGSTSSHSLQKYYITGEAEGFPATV
Put plainly: Estrogen receptor binding, competition with [125I]-estradiol, ER-α. The method, then:
(§1) The ability of a compound to bind to ER was measured by its ability to compete for binding with the radio-labeled estrogen.
(§2) Receptor protein was prepared by in vitro transcription and translation of these plasmids using the TNT T7 Quick-Coupled reticulocyte lysate system (Promega Cat.#L1170). […] Programmed lysate was then aliquotted and stored frozen at −80° C.
(§3) Compounds were prepared as 1 mM stocks in DMSO, then diluted in the binding-assay buffer (in mM: 20 HEPES, 150 NaCl, 1 EDTA, 6 monothioglycerol and 10 Na2MoO4; 10% wt/vol glycerol, and pH =7.9) to a series of three-fold concentrated, 20 μL aliquots in a 96-well plate. Receptor aliquots were thawed on ice, and appropriately diluted (see below) in binding assay buffer. Diluted receptor (30 μL/each) was added to each well. […] Plates containing the final assay mixture were mixed on a shaker for 2 min and incubated overnight (˜16 h) at 4° C.
(§4) Receptor-bound and unbound radioligand was separated by filtration over sephadex columns. Columns (45 μL bed volume) were prepared by adding dry column media (Pharmacia Cat#G-25) to 96-well column templates (Millipore MultiScreen Plates Cat#MAHVN4510). Columns were then saturated with 300 μL of binding-assay buffer and stored at 4° C. Prior to use, stored columns were spun for 10 minutes at 2000 RPM, then washed twice with 200 μL of fresh binding buffer. The binding-assay mixtures (50 μL/each) were then applied to the columns, and an additional elution volume of 35 μL was immediately applied to the column. Receptor-bound radioligand was then cluted from the column by centrifugation for 10 minutes at 2000 RPM. A scintillation cocktail (145 μL) was added to the eluted radioligand/receptor complex, and radio-label was measured by liquid scintillation counting.

The target of assay [2] is T2, ER-β (Gen Bank Accession #X99101) (Homo sapiens, UniProt Q92731).
T2 construct: made in house; host or cells: in vitro transcription/translation, TNT T7 Quick-Coupled reticulocyte lysate (Promega Cat.#L1170)
T2 sequence (Q92731 54-530 limits assumed): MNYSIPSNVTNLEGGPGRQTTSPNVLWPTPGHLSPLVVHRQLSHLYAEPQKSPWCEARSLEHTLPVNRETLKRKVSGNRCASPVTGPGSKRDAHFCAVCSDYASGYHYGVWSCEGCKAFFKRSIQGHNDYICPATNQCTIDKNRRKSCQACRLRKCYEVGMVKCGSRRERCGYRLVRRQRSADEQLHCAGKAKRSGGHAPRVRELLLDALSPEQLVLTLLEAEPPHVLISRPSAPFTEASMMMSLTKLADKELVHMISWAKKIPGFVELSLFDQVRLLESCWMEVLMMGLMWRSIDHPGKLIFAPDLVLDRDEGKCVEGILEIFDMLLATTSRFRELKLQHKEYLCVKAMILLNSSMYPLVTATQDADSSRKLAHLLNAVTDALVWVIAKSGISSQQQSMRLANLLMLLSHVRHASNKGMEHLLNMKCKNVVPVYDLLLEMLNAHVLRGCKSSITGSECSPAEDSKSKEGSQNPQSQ
Put plainly: Estrogen receptor binding, competition with [125I]-estradiol, ER-β. Here is the method:
as §1, §2, §3, §4

Assay [3] concerns the target ER. The assay can be described thus: Scatchard analysis of ligand binding affinity on receptor preparation. As to conditions: Scatchard analysis at receptor dilutions giving reported Kis and signal:noise ~10; subtype not specified; read-out: KD for [125I]-estradiol. The method, then:
The volume of receptor-programmed reticulocyte lysate to be added to the binding assay was determined independently from two measurements made on each batch of receptor prepared. First, Kis were determined for standard compounds using a series of dilutions of the receptor preparation. Scatchard analysis of ligand binding affinity was performed at the receptor dilutions that produced reported Kis for these compounds and an acceptable signal:noise ratio (˜10).

Setting [4] is: competition with 150 pM [125I]-estradiol, receptor-programmed reticulocyte lysate, overnight at 4° C., Cheng-Prushoff from IC50, read-out: ER-α Ki.
Where [5] appears, read: competition with 150 pM [125I]-estradiol, receptor-programmed reticulocyte lysate, overnight at 4° C., Cheng-Prushoff from IC50, read-out: ER-β Ki.

Broadly, the Ki is the dissociation constant of the complex between target and ligand, obtained from inhibition or displacement. As for `O=c1c(-c2ccc(O)cc2Cl)coc2cc(O)cc(O)c12` [Compound No. 2], the Ki turned out to be 0.056 µM in assay [1] (setting [4]) and 0.00055 µM in assay [2] (setting [5]).

For `Cc1c(-c2ccc(O)cc2)c(=O)oc2cc(O)ccc12` [Compound No. 28, 3-(4-hydroxyphenyl)-7-hydroxy-4-methylcoumarin], the Ki in assay [1] (setting [4]) came out at 0.322 µM; in assay [2] (setting [5]) it was 0.012 µM.

Broadly, the Kd is the concentration at which binding is half-saturated. Take `CC12CCC3c4ccc(O)cc4CCC3C1CC([125I])C2O` (stereo not drawn) [[^125I]-estradiol, [^125I]-16α-iodo-3,17β-estradiol]: in assay [3], the Kd was in the range of 0.0001 to 0.001 µM.

Turning to `O=c1c(-c2ccc(O)c(O)c2)coc2cc(O)cc(O)c12` [compound 1], the values for the Ki in assay [1] (setting [4]) and in assay [2] (setting [5]) were 0.605 µM and 0.00215 µM, respectively.

On to `Cc1cc(O)ccc1-c1coc2cc(O)cc(O)c2c1=O` [compound 3], for which the Ki in assay [1] (setting [4]) is 0.061 µM; in assay [2] (setting [5]), 0.0012 µM.

For `O=c1c(-c2ccc(O)c(F)c2)coc2cc(O)cc(O)c12` [compound 4], the inhibitory constant (Ki) in assay [1] (setting [4]) worked out at 0.074 µM; in assay [2] (setting [5]) it was 0.0005 µM.

Consider `O=c1c(-c2ccc(O)c(Cl)c2)coc2cc(O)cc(O)c12` [compound 5], for which the figures for the Ki in assay [1] (setting [4]) and in assay [2] (setting [5]) were 1.1 µM and 0.0012 µM, respectively.

As for `O=c1c(-c2ccc(O)c(Br)c2)coc2cc(O)cc(O)c12` [compound 6, (3-Bromo-4-hydroxyphenyl)-5,7-dihydroxy-4H-1-benzopyran-4-one], the Ki in assay [1] (setting [4]) was 0.439 µM; in assay [2] (setting [5]), 0.00125 µM.

Regarding `C=CCc1cc(-c2coc3cc(O)cc(O)c3c2=O)ccc1O` [compound 7], the inhibitory constant (Ki) in assay [1] (setting [4]) was more than 3 µM; in assay [2] (setting [5]), 0.0032 µM.

`CCCc1cc(-c2coc3cc(O)cc(O)c3c2=O)ccc1O` [compound 8]: the Ki in assay [1] (setting [4]) is more than 3 µM; in assay [2] (setting [5]) it was 0.00075 µM.

For `COc1cc(-c2coc3cc(O)cc(O)c3c2=O)ccc1O` [compound 9], the Ki is more than 3 µM in assay [1] (setting [4]) and 0.143 µM in assay [2] (setting [5]).

Take `Cc1cc(-c2coc3cc(O)cc(O)c3c2=O)cc(C)c1O` [compound 10]: the Ki in assay [1] (setting [4]) was more than 3 µM; in assay [2] (setting [5]), 0.025 µM.

With `O=c1c(-c2ccc(F)cc2)coc2cc(O)cc(O)c12` [compound 11], the Ki in assay [1] (setting [4]) was more than 3 µM; in assay [2] (setting [5]) it was 0.1 µM.

On to `O=c1c(-c2ccc3c(c2)OCO3)coc2cc(O)cc(O)c12` [compound 12], for which the inhibition constant Ki in assay [1] (setting [4]) is more than 3 µM; in assay [2] (setting [5]) it was 0.022 µM.

`Nc1ccc(-c2coc3cc(O)cc(O)c3c2=O)cc1` [compound 13]: the Ki in assay [1] (setting [4]) is more than 3 µM; in assay [2] (setting [5]), 0.006 µM.

On to `O=c1c(-c2ccc3ccccc3c2)coc2cc(O)cc(O)c12` [compound 14], for which the Ki in assay [1] (setting [4]) is more than 3 µM; in assay [2] (setting [5]), 0.15 µM.

Turning to `O=c1c(-c2cccc(O)c2)coc2cc(O)cc(O)c12` [compound 15], the inhibitory constant (Ki) in assay [1] (setting [4]) was 0.9 µM; in assay [2] (setting [5]), 0.015 µM.

For the compound `O=c1c(-c2ccccc2O)coc2cc(O)cc(O)c12` [compound 16], the results for the inhibition constant Ki in assay [1] (setting [4]) and in assay [2] (setting [5]) were more than 3 µM and 0.11 µM, respectively.

With `O=c1c(-c2cccs2)coc2cc(O)cc(O)c12` [compound 17], the figures for the Ki in assay [1] (setting [4]) and in assay [2] (setting [5]) were more than 3 µM and 0.0033 µM, respectively.

On to `O=c1c(-c2ccsc2)coc2cc(O)cc(O)c12` [compound 18], for which the inhibition constant Ki is more than 3 µM in assay [1] (setting [4]) and 0.017 µM in assay [2] (setting [5]).

In the case of `O=c1c(-c2ccc3ccccc3n2)coc2cc(O)cc(O)c12` [compound 19], the Ki is more than 3 µM in assay [1] (setting [4]) and 0.122 µM in assay [2] (setting [5]).

Turning to `O=c1c(-c2ccc(Br)cc2)coc2cc(O)cc(O)c12` [compound 20], the inhibitory constant (Ki) in assay [1] (setting [4]) is more than 3 µM; in assay [2] (setting [5]), 0.025 µM.

Regarding `O=c1c(-c2ccc(Cl)cc2)coc2cc(O)cc(O)c12` [compound 21], the values for the inhibition constant Ki in assay [1] (setting [4]) and in assay [2] (setting [5]) were more than 3 µM and 0.042 µM, respectively.

Turning to `COc1cc(O)c2c(=O)c(-c3ccc(O)cc3)coc2c1` [compound 22], the values for the inhibition constant (Ki) in assay [1] and in assay [2] were more than 3 µM and 0.05 µM, respectively.

On to `Cc1cc(O)cc2occ(-c3ccc(O)cc3)c(=O)c12` [compound 23], for which the Ki amounted to 0.2 µM in assay [1] (setting [4]) and 0.0005 µM in assay [2] (setting [5]).

In the case of `O=c1c(-c2ccc(O)c(F)c2)coc2cc(O)ccc12` [compound 24], the Ki in assay [1] (setting [4]) was more than 3 µM; in assay [2] (setting [5]), 0.0033 µM.

Turning to `O=c1c(-c2ccc(O)cc2)c(C(F)(F)F)oc2cc(O)ccc12` [compound 25], the Ki amounted to 0.321 µM in assay [1] (setting [4]) and 0.01 µM in assay [2] (setting [5]).

`O=C1c2c(O)cc(O)cc2OCC1c1ccc(O)cc1` (stereo not drawn) [compound 26]: the Ki was found to be 1 µM in assay [1] (setting [4]) and 0.0037 µM in assay [2] (setting [5]).

For the compound `O=C1c2c(O)cc(O)cc2CCC1c1ccc(O)cc1` (stereo not drawn) [compound 27], the Ki in assay [2] (setting [5]) turned out to be 0.0057 µM.

For `CCc1c(-c2ccc(O)cc2)c(=O)oc2cc(O)ccc12` [compound 29], the Ki in assay [1] (setting [4]) was found to be 0.08 µM; in assay [2] (setting [5]), 0.004 µM.

Regarding `COc1c(O)cc(O)c2c(=O)c(-c3ccc(O)cc3)coc12` [compound 32], the values for the Ki in assay [1] (setting [4]) and in assay [2] (setting [5]) were more than 3 µM and 0.033 µM, respectively.

`O=c1c(-c2ccccc2F)coc2cc(O)cc(O)c12` [compound 33]: the inhibitory constant (Ki) is more than 3 µM in assay [1] (setting [4]) and 0.05 µM in assay [2] (setting [5]).

As for `O=c1c(-c2ccccc2)c(-c2ccccc2)oc2cc(O)cc(O)c12` [compound 34], the Ki in assay [1] (setting [4]) came to 0.095 µM; in assay [2] (setting [5]), 0.0095 µM.

Turning to `O=c1c(-c2ccccc2)c(-c2ccccc2)oc2cc(O)ccc12` [compound 35], the results for the Ki in assay [1] (setting [4]) and in assay [2] (setting [5]) were 0.05 µM and 0.019 µM, respectively.

Take `O=c1cc(-c2ccc(O)cc2)oc2ccc(O)cc12` [compound 36]: the Ki turned out to be 0.088 µM in assay [1] (setting [4]) and 0.00033 µM in assay [2] (setting [5]).

As to `O=C1CC(c2ccc(O)cc2)Cc2ccc(O)cc21` (stereo not drawn) [compound 37], the Ki in assay [1] (setting [4]) is 0.075 µM; in assay [2] (setting [5]) it was 0.00073 µM.

`O=c1oc2cc(O)ccc2cc1-c1ccc(O)cc1` [compound 38]: the Ki in assay [1] (setting [4]) was 0.22 µM; in assay [2] (setting [5]), 0.0049 µM.

As for `O=c1oc2cc(O)cc(O)c2cc1-c1ccc(O)cc1` [compound 39], the Ki in assay [1] (setting [4]) is more than 3 µM; in assay [2] (setting [5]) it was 0.079 µM.

On to `O=c1oc2ccc(O)cc2cc1-c1ccc(O)cc1` [compound 41], for which the Ki in assay [2] (setting [5]) is 0.0046 µM.

With `Cc1c(-c2ccc(Cl)cc2)c(=O)oc2cc(O)ccc12` [compound 42], the Ki in assay [1] (setting [4]) is more than 3 µM; in assay [2] (setting [5]), 0.051 µM.

In the case of `Cc1c(-c2ccc(O)cc2)c(=O)oc2c(C)c(O)ccc12` [compound 43], the Ki turned out to be 0.5 µM in assay [1] (setting [4]) and 0.024 µM in assay [2] (setting [5]).

`Oc1ccc(C2COc3cc(O)ccc3C2)cc1` (stereo not drawn) [compound 46]: the Ki in assay [1] (setting [4]) came to 0.155 µM; in assay [2] (setting [5]), 0.002 µM.
